Measurements reported in US7271187B2, “Compositions and methods for promoting tissue regeneration” (priority 2000, dated 2007).
“Also recorded” adds a separate entry of the source.

Tests used:
[1] = test system: Fischer F344 female rats, spinal cord contusion injury; test: Spinal cord contusion injury, injection of bone marrow cells from treated donors into the cavity; type: in vivo, rat; conditions: recipients of bone marrow cells from donors given 100 mg/kg orally
Excerpt: In some embodiments of the invention, cells, preferably bone marrow cells, can be transferred from a first animal treated according to methods of the invention to a site of chronic spinal cord injury in the first animal or in a second animal.
Fischer F344 female rats (Taconic, Germantown N.Y.) weighing 175-200 g were subjected to 25 mm weight drop contusion injury as previously described (Gruner J A, J. Neurotrauma, 1992 Summer; 9(2):123-8) with slight modifications. Briefly, under isoflurane anethesia, a laminectomy exposing the T8-9 spinal cord segment was performed and a rod weighing 10 g was dropped on the exposed cord from 25 mm height. The rod diameter at its end (where cord-rod interaction takes place) is 2.8 mm. A total of 12 rats were injured. Four animals were used as donor animals, eight as recipients. Two donor animals were administered N-[4-[(4-fluorophenyl)sulfonyl]phenyl]acetamide at a dose of 100 mg/kg orally, and two other animals were treated with vehicle (cyclodextrin, 45% in distilled sterile water). […]
Doseage levels of with N-[4-[(4-fluorophenyl)sulfonyl]phenyl]acetamide was 100 mg/kg at 20 mg/ml. No difference in cavity size was detected comparing saline treated animals and animals treated with bone marrow cells from vehicle treated donors. […]

[2] = test system: spinal cord of an injured recipient animal; test: Bone marrow cell implantation at spinal cord injury site with BrdU labelling; type: in vivo, rat; conditions: 12 weeks after implantation of bone marrow cells from orally treated donor
Protocol: In preferred embodiments, the invention relates to regenerating nerve tissue in vivo. Methods of the invention include administering a therapeutically effective dose of a composition of the invention to a first mammal in need of neural regeneration. In some embodiments, a compound of Formula (I) or Formula (II) is administered, preferably orally administered, to a mammal in need of tissue regeneration, preferably neural tissue regeneration. In some embodiments, methods of the invention comprise administering a compound of Formula (I) or Formula (II) to a first mammal, harvesting cells from the first mammal after administration of the compound and subsequently delivering the harvested cells locally at a site where increased neural expression or increased neural regeneration is needed, wherein the injury site can be in the first mammal or in a second mammal. In some embodiments, the compositions of the invention can be administered intralesionally. Preferably, the harvested cells are from any type of stem cell, for example bone marrow cells. For example, bone marrow cells can be collected from a donor animal (e.g., a rat) within two weeks, preferably within three to seven days, after oral administration of N-[4-[(4-fluorophenyl)sulfonyl]phenyl]acetamide in a pharmaceutically acceptable carrier to the donor animal. […]

CC(=O)Nc1ccc(S(=O)(=O)c2ccc(F)cc2)cc1 [N-[4-[(4-fluorophenyl)sulfonyl]phenyl]acetamide]
cavity size at the injury site ([1]; four weeks after cell injection, vs saline treated animals): decrease in cavity size at the injury site (approximately half the size) | Nestin immunoreactive cells at the edge of the injury cavity ([1]; vs saline or vehicle treated donors, 100 mg/kg): Nestin immunoreactive cells are observed at the edge of the injury cavity; also recorded: significant increase in cells immunoreactive to nestin | BrdU incorporation and expression of nestin, beta-tubulin and GFAP in spinal cord tissue [2]: shows incorporation of BrdU in cell nuclei, as well as expression of nestin, beta-tubulin and GFAP
